Assays:
Fas and B7 = Fas and B7 levels in cells in the presence of 2-deoxyglucose; type: cell-based; settings: cells where glucose cannot bind to its receptor
Procedure: […] Cells were then harvested, stained with fluorescent labeled anti-Fas, or with isotype controls as indicated. […] Data were analyzed using Becton Dickinson CellQuest software.

B7.2 on HL60 cells = settings: 0.25 mM H202, 48 hours
Procedure: (§1) The cells were then exposed to 200 mW of low frequency microwaves for 30 minutes, 1 hour, or 3 hours. Cells were then stained with DCF-DA (Molecular Probes, Inc. Eugene, Oreg.) as an indicator of relative levels of H202. Cells were also stained with fluorescent labeled antibodies to human B7.2 (Pharmingen, Inc.), versus fluorescent labeled, isotype matched control antibodies, upper panels, left and right, respectively. Indicated levels represent the ratio of specific B7.2 stain over the fluorescently labeled isotype control for each condition. Replicate samples, microwaved for the indicated time periods, were subsequently cultured for an additional 21 hours and stained for H202 and B7.2, as indicated, lower panels. Cells were analyzed flow cytometrically using a Coulter Excel Flow Cytometer. Data were analyzed using Becton Dickinson CellQuest software.
(§2) Methods: Human myelocyte cells U937, HL60, PC12, and PC12Trk cells were cultured in the presence of subcytotoxic doses (0.25 mM) of H202 for 48 hours, harvested and stained with isotype controls or fluorescent labeled anti-B7.2 as described in Example 1. Cells were analyzed flow cytometrically using a Coulter Excel Flow Cytometer. Data were analyzed using Becton Dickinson CellQuest software.

[1] = tested on: B7.2 on PC12 neural cell line; settings: PC12 cells, 0.25 mM H202, 48 hours
Procedure: as §1, §2

[2] = tested on: B7.2 on PC12Trk neural cell line; settings: PC12Trk cells, 0.25 mM H202, 48 hours
Procedure: as §1, §2

B7.2 on U937 cells = settings: 0.25 mM H202, 48 hours
Procedure: as §1, §2

B7 on MCF7 cells = settings: H2O2 at subcytotoxic levels
Excerpt: We added H2O2 (at subcytotoxic levels) directly to cells (MCF7, HL60, U937, and neural cells PC12 and PC12Trk^15) in culture to see if this caused changes in B7 expression.

[3] = tested on: B7.1 on keratinocyte cell line; settings: mouse keratinocyte cell line, 0.25 mM H2O2, 12 or 24 hours
Procedure: (§3) A mouse keratinocyte cell line was incubated with or without 0.25 mM Hydrogen Peroxide (H2O2) for 12 or 24 hours. Then the level of B7.1 and Fas were evaluated. The data is attached as FIGS. 3A and 3B.

[4] = tested on: Fas on keratinocyte cell line; settings: mouse keratinocyte cell line, 0.25 mM H2O2, 12 or 24 hours
Procedure: as §3

[5] = tested on: reactive oxygen in neural stem cells; settings: DCF-DA stain, FIG. 4
Procedure: FIG. 4 is a graph depicting the effects of ethanol in neural stem cells. The cells were stained with DCF-DA.
Methods: Neural stem cells were treated as described above.

[6] = tested on: co-stimulatory molecules in neural stem cells
Fas on HL60 cells = assay: Cell surface Fas expression, flow cytometry with anti-Fas; type: cell-based
Procedure: Methods: HL60 cells were incubated with insulin or under in conditions of low glucose overnight. Cells were then harvested, stained with fluorescent labeled anti-Fas, or with isotype controls as indicated. […] Data were analyzed using Becton Dickinson CellQuest software.

## O=CC[C@@H](O)[C@H](O)[C@H](O)CO [2-deoxyglucose]
Fas and B7
  levels of these molecules (Fas and B7): substantial reductions

## OO [H2O2, Hydrogen Peroxide]
B7.2 on HL60 cells
  cell surface expression of B7.2: increased cell surface expression of B7.2
[1]
  cell surface expression of B7.2: increased cell surface expression of B7.2
[2]
  cell surface expression of B7.2: increased cell surface expression of B7.2
B7.2 on U937 cells
  cell surface expression of B7.2: increased cell surface expression of B7.2
B7 on MCF7 cells
  B7 expression: increase in B7
[3]
  level of expression of B7.1: increases
[4]
  level of expression of Fas: increases

## CCO [alcohol, ethanol]
[5]
  reactive oxygen: increase reactive oxygen
[6]
  induction of co-stimulatory molecules: increased induction of co-stimulatory molecules

## insulin
Fas on HL60 cells; HL60 cells incubated with insulin overnight
  cell surface Fas expression: loss of cell surface Fas expression
Fas on HL60 cells; addition of insulin to cells in culture
  reduction of levels of Fas: ten-fold

— patent US20040005291A1, “Methods for regulating co-stimulatory molecule expression with reactive oxygen” (priority 2001, published 2004)
